For 87 compounds, IC50 results are on record in PubChem BioAssay AID1645866 (Buhrlage Lab, Dana-Farber Cancer Institute and Novartis …, 2021).

Active and inactive are the calls of the source.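 Rule for the calls: active = in confirmatory dose-response testing, peak deubiquitinase inhibition of 30% or more; inactive = the rest.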

The target in this test is Ubiquitin carboxyl-terminal hydrolase 28 (Homo sapiens) (UniProt Q96RU2). Put plainly: Concentration-response biochemical assay confirming initial hits as inhibitors of ubiquitin-specific protease 28 (AID 1645866). Conditions: purified USP28, ubiquitin-rhodamine fluorescence, 30 min.
Ubiquitin carboxyl-terminal hydrolase 28 (Homo sapiens), sequence (Q96RU2 whole entry, looked up): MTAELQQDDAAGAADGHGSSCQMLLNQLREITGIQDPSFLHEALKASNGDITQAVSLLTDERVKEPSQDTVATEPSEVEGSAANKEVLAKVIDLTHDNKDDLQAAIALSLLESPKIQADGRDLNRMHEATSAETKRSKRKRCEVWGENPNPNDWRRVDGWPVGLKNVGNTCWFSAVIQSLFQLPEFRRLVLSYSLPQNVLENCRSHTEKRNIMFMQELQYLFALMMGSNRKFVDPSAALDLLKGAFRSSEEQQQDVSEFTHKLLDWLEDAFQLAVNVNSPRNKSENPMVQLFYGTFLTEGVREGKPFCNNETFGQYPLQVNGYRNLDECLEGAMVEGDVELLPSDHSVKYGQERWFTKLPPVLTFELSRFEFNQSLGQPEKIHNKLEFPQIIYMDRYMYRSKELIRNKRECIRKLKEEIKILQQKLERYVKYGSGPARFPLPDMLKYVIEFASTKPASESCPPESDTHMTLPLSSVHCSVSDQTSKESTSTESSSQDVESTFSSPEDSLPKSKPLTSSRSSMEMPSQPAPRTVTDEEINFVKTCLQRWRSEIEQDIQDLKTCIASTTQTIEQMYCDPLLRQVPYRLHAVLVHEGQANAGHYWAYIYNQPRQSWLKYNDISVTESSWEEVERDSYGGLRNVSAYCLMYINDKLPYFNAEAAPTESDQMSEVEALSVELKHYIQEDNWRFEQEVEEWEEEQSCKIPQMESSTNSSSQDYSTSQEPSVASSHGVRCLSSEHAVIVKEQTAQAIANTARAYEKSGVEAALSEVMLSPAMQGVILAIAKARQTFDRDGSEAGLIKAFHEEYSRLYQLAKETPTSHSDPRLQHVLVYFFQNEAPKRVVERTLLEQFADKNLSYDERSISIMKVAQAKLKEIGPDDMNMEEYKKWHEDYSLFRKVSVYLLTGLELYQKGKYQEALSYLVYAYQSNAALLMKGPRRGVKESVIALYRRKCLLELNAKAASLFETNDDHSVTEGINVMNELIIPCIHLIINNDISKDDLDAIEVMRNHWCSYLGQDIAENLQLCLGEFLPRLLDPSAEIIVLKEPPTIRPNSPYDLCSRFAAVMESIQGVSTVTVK

With `O=C(c1ccnn1-c1ccc2ccc(-c3ccncc3)cn12)N1CCCC1`, the IC50 (as a rule, the point on the concentration scale where inhibition reaches its midpoint) is > 50 µM (inactive). Then `CC(C)CCN1C(=O)C2C(C(=O)Nc3ccc(Oc4ccccc4)cc3)C3C=CC2(O3)C1C(=O)NC1CCCCC1` (configuration not stated), with 37.5 µM; and `COc1cccc(-n2c(=O)[nH]c3c(C(N)=O)nc(-c4ccc(OCc5ccccc5)cc4)nc32)c1`, with > 50 µM (inactive); and `COc1ccc(NC(=O)Cn2c(CSc3ccc(C)cc3)nc3ccccc32)cc1`, with 20.8 µM.

For `CCCc1cc(=O)oc2cc(OCC(=O)NCc3ccc(OC)cc3)ccc12`, the IC50 was 16.6 µM. As for `COc1cc(OC)cc(-c2nc(-c3cn(-c4cccc(F)c4)nn3)no2)c1`, the IC50 is 0.483 µM. Consider `CC(=O)Nc1ccc(S(=O)(=O)Nc2ccc(Nc3ccc(-n4cccn4)nn3)cc2)cc1`, for which the IC50 is 32.8 µM. Then `O=C(O)Cc1ccc(Nc2nc3ccccc3n3nnnc23)cc1`, with > 50 µM (inactive). As for `Cc1sc(NC(=O)CN2CCc3ccccc3C2)nc1-c1ccc2c(c1)CCN2C(=O)C1CCCCC1`, the figure is > 50 µM (inactive); as for `CC[C@@]1(O)C[C@H](OC2CC(N(C)C)C(OC3CC(O)C(OC4CCC(=O)C(C)O4)C(C)O3)C(C)O2)c2c(cc3c(c2O)C(=O)c2c(O)ccc(O)c2C3=O)[C@H]1C(=O)OC` (some centres not stated), 4.26 µM; as for `Cc1cc(NC(=O)COc2ccc3oc4ccccc4c3c2)no1`, 26.5 µM.

Consider `COc1ccc(NC(=O)CN2CCN(c3ccc(C(C)=O)cc3)CC2)cc1S(=O)(=O)N1CCCCC1`, for which the IC50 was 40.4 µM. As for `CC1CC(=O)c2c(cc3c(-c4c(O)cc(O)c5c(O)c6c(cc45)OC(C)CC6=O)c(O)cc(O)c3c2O)O1` (configuration not stated), the figure is 20.8 µM; as for `CCCOc1ccc(C(=O)Nc2ccc(S(=O)(=O)Nc3cc(C)nc(C)n3)cc2)cc1`, 31.5 µM. As for `COc1cccc(CNC(=O)c2ccc(CSc3nc4ccncc4n3Cc3ccccc3F)cc2)c1`, the figure is 27.4 µM; as for `COc1ccc(NC(=O)c2ccccc2OCC(=O)Nc2ccccc2C(F)(F)F)c(C)c1`, 23.4 µM. With `Cc1ccc(Cn2cc(-c3noc(-c4ccncc4)n3)nn2)cc1`, the IC50 is 36.9 µM.

Regarding `Cc1ccc(NC(=O)c2nnn(-c3ccccc3)n2)cc1F`, the half-inhibitory concentration (IC50) was 19.9 µM. As for `COc1ccc(/C=C/C(=O)Nc2cccc(S(=O)(=O)Nc3ccccc3Cl)c2)c(OC)c1`, the figure is 21.4 µM; as for `COc1ccc(C(=O)Nc2ccc3c(c2)Sc2ncccc2C(=O)N3C)cn1`, > 50 µM (inactive); as for `Cc1cc(C)c(O)c(-c2cc(C(=O)Nc3ccccc3Cl)[nH]n2)c1`, 3.54 µM. In the case of `Cc1ccccc1Cc1nc(-c2ccc(=O)[nH]c2)no1`, the IC50 is 0.946 µM.

As for `O=C(Cn1cnc(-c2noc(-c3ccncc3)n2)c1)N1CCN(c2ccccc2F)CC1`, the IC50 was > 50 µM (inactive). As for `COc1cccc(-c2cc(C(=O)N3CCN(c4ccc(N5CCOCC5)nn4)CC3)[nH]n2)c1`, the figure is 3.83 µM; as for `O=C(CN1CCCCC1)Nc1nnc(-c2ccc([N+](=O)[O-])cc2)s1`, 14 µM. Then `Cc1cc(Cl)ccc1NC(=O)c1cc(-c2cccnc2)n[nH]1`, with > 50 µM (inactive); and `CCCC(=O)Nc1nc2ccc(CCC(=O)NCc3ccc(F)cc3)cc2s1`, with 25.8 µM; and `O=C(CC(C(=O)Nc1ccc2c(c1)OCO2)C(=O)c1ccccc1)Nc1ccc(Cl)cc1F` (configuration not stated), with 9.87 µM. On to `COc1ccc(C(=O)Nc2ccccc2C(=O)NCc2ccccc2)cc1`, for which the IC50 is 37.6 µM. As for `CC1CCCN(CCCNC(=O)c2ccc(N3CCc4ccccc43)s2)C1` (configuration not stated), the figure is 18.5 µM; as for `CCc1cccc(CC)c1NC(=O)COC(=O)c1cc2cccc(OC)c2oc1=O`, 16.4 µM; as for `Cc1c(OCC(=O)Nc2nc3ccccc3[nH]2)ccc2c3c(c(=O)oc12)CCC3`, 0.541 µM. As for `COc1cc(=O)c(C(=O)Nc2ccc(C#N)cc2)nn1-c1cccc(F)c1`, the figure is 20.7 µM. Then `CCc1nc2c(NC(=O)Nc3cccc(C(=O)OC)c3)cccn2n1`, with 2.91 µM; and `CCC(=O)Nc1nc2cc(NC(=O)Nc3cc(C)cc(C)c3)ccc2s1`, with 2.97 µM; and `O=C(COC(=O)c1ccc(NS(=O)(=O)c2ccc3c(c2)OCCO3)cc1)NCc1ccc(Cl)cc1`, with 6.76 µM. On to `CC(=O)Nc1ccc(O)c(-c2nc3cc(C)ccc3o2)c1`, for which the IC50 is 3.38 µM. As for `CCCc1nc2sc3c(N(CC)CC)ncnc3c2c2c1CCC2`, the figure is 3.77 µM; as for `CCOc1ccc(NC(=O)Cn2cnc(S(=O)(=O)N3CCc4ccccc43)c2)cc1`, 27.6 µM.

In the case of `Cc1cccc(NC(=O)Cn2c(N3CCOCC3)nc3cc(C)n(C)c3c2=O)c1`, the IC50 was 16.3 µM. On to `O=C(CSc1nnc(Cn2cnc3ccccc32)o1)Nc1ccc([N+](=O)[O-])cc1`, for which the IC50 was 20.3 µM.

Consider `CCOc1ccc(NC(=O)Cn2c(=O)n(CCCCCC(=O)NCc3ccc(F)cc3)c(=O)c3sccc32)cc1`, for which the IC50 is 1.95 µM. As for `O=C(NCc1ccc2c(c1)OCO2)c1cc2c(s1)-c1ccccc1OC2`, the figure is 7.07 µM. Turning to `O=C(NCc1ccc2c(c1)OCO2)c1cc(-c2cc(Cl)ccc2O)n[nH]1`, the IC50 is 12 µM. Take `Cc1cc(O)c2c3c(c(O)c4c(c13)O[C@@H](C)C4(C)C)C(=O)C2=O`: the IC50 is 23.5 µM. Then `O=C(c1cn(-c2cccc(F)c2)nn1)N1CCc2ccccc2C1`, with 22.8 µM; and `Nc1ccc(NC(=O)c2cc3c(s2)CCC3)cc1[N+](=O)[O-]`, with 16.9 µM. As for `CN(C(=O)CSc1nnc(-c2cc3ccccc3n2C)o1)c1ccccc1`, the figure is > 50 µM (inactive). As for `CCc1cccc2c(C(=O)COc3ccc(C#N)cc3)c[nH]c12`, the figure is 15.1 µM; as for `CCCCC/C=C/C=C/C(=O)OC1C(O)CC(c2ccc3c(c2O)C(=O)c2c(O)cc4cc(C)cc(O)c4c2C3=O)OC1C` (configuration not stated), 14.6 µM; as for `Cc1ccc(-n2c(-c3ccccc3)cn3c4c(=O)[nH]c(=O)n(C)c4nc23)cc1C`, 0.641 µM. For the compound `Cc1ccccc1NC(=O)c1ccc(N2CCCCC2)nn1`, the IC50 was > 50 µM (inactive). As to `Fc1cccc(Cn2cc(-c3noc(-c4ccncc4)n3)nn2)c1`, the IC50 is 24.9 µM. Turning to `COc1ccccc1-c1nc(-c2nnn(Cc3cccc(F)c3)c2C)no1`, the IC50 was 10.4 µM.

On to `Cc1ccc(Cn2c(=O)c3ccccc3n3c(CCC(=O)N4CCN(c5ccccn5)CC4)nnc23)cc1`, for which the concentration for half-maximal inhibition (IC50) was 5.55 µM.

`COc1ccccc1-c1nc2c3c(C)c(C)n(Cc4cccnc4)c3ncn2n1`: the 50% inhibitory concentration (IC50) is 20.4 µM. As for `Cc1nn(-c2cccc(F)c2)c2c1C(C(=O)c1ccc(Cl)s1)CC(=O)N2` (configuration not stated), the figure is 48.6 µM. As for `COc1ccc(CC(NC(C)=O)C(=O)NC2CCN(c3c(Cc4ccccc4)c(C)nc4ncnn34)CC2)cc1OC` (configuration not stated), the IC50 is > 50 µM (inactive).

Take `COc1cccc(NC(=O)C2Cn3ccnc3C3(CCN(C(C)=O)CC3)O2)c1` (configuration not stated): the IC50 is > 50 µM (inactive). As for `O=C1NC(=O)/C(=C/c2ccc(OC(=O)c3ccc(Cl)cc3Cl)cc2)N1`, the figure is 4.46 µM; as for `Cc1cc(=O)n(CC(=O)Nc2ccccc2F)c(Nc2ccc(F)cc2)n1`, 14.3 µM. As for `COc1ccc(-c2cc(C(=O)N3CCN(c4ccc([N+](=O)[O-])cc4)CC3)[nH]n2)cc1`, the figure is > 50 µM (inactive); as for `Cc1cc(O)c(Oc2cc(C)cc(O)c2O)c(O)c1`, 15.1 µM; as for `O=C(CCCc1c[nH]c2ccccc12)Nc1ccc2c(c1)OCCO2`, 4.42 µM. Then `O=C(COC(=O)CCc1ccc(S(=O)(=O)N2CCOCC2)cc1)Nc1ccc2c(c1)OCCO2`, with 7.22 µM. As to `Cc1ccc(NC(=O)c2cnc(N3CCOCC3)nc2)cc1F`, the concentration for half-maximal inhibition (IC50) is 33.3 µM. As for `O=C(Nc1ccc2c(c1)OCCO2)C1CCC(Cn2cnc3ccccc3c2=O)CC1` (configuration not stated), the figure is 0.594 µM; as for `O=C(COc1ccc(Cl)cc1Cl)Nc1ccc2[nH]c(=O)[nH]c2c1`, 5.44 µM. With `O=C(CCc1ccc(S(=O)(=O)N2CCOCC2)cc1)Nc1ccc2c(c1)OCCO2`, the IC50 was 13.1 µM. As for `CCOC(=O)C1CCN(C(=O)c2ccc3c(c2)NC(=O)C2CCCN32)CC1` (configuration not stated), the figure is > 50 µM (inactive); as for `O=S(=O)(Nc1ccc(O)cc1)c1ccc2oc3ccc(S(=O)(=O)Nc4ccc(O)cc4)cc3c2c1`, 22.3 µM; as for `CCc1ccccc1NC(=O)c1cc(-c2ccccn2)n[nH]1`, 46.1 µM. `COc1ccc(NC(=O)Cn2cc(C(=O)c3ccc(F)cc3)c(=O)c3cc(C)ccc32)cc1`: the IC50 was 19.7 µM. As for `CC1Cc2ccccc2N1C(=O)Cn1c(=O)cc(O)c2ccccc21` (configuration not stated), the figure is 18.8 µM; as for `CC[C@H](C)[C@H](NC(=O)[C@H]([C@@H](C)CC)N(C)C(C)=O)C(=O)N[C@H](C(=O)N[C@@H](CC(C)C)C(=O)C1(C)CO1)[C@@H](C)O` (some centres not stated), > 50 µM (inactive). Then `COc1cc(Cl)ccc1Oc1ncnc2sc(C)c(C)c12`, with > 50 µM (inactive); and `O=C(c1ccc2cc[nH]c2c1)N1CCC(Nc2cccnc2)C1` (configuration not stated), with > 50 µM (inactive). As for `O=C(COc1ccc(Cl)cc1)Nc1noc(-c2ccccc2)n1`, the figure is 22.4 µM. As for `CC(NC(=O)c1ccccc1)c1nc2ccccc2n1CC(=O)Nc1ccc2c(c1)OCO2` (configuration not stated), the IC50 was 2.11 µM.

For `Oc1ccc(Br)cc1CNc1ccc(F)cc1`, the IC50 is 18.3 µM. Then `CC1=C[C@H]2N(c3ccc(C)cc31)[C@H](C(=O)c1cccs1)[C@@H](C(=O)c1ccc(F)cc1)[C@]21C(=O)Nc2ccccc21`, with > 50 µM (inactive); and `CS(=O)(=O)c1ccc(NC(=O)C2CN(c3nc4c(F)cccc4s3)C2)cc1`, with 21.3 µM; and `CC(C)(C)c1ccc(C(=O)Nc2ccc(Oc3cccnc3)nc2)cc1`, with 20.4 µM. Then `Cc1ccc(NC(=O)CCC(=O)Nc2ccc3nc(N4CCCCC4)cc(C)c3c2)c(Br)c1`, with 22.7 µM; and `Cc1ccc(CN2C(=O)c3cc4ccccc4n3CC2(C)C(=O)NCc2ccccc2)o1` (configuration not stated), with 44.6 µM; and `O=C(COc1cccc(-n2cnnn2)c1)Nc1ccc2c(c1)OCCO2`, with 31.4 µM.

On to `CC(C)(C)C(=O)[C@@H]1[C@@H](C(=O)c2ccc3c(c2)OCO3)[C@@]2(C(=O)Nc3ccccc32)[C@H]2c3ccccc3C=CN12`, for which the IC50 was 44.5 µM.
